For one assay, the target named is human NK1 receptor (Homo sapiens, UniProt P25103). Kind of assay: NK1 receptor binding, [3H]substance P displacement, CHO cell membranes. The note with it: first value of the cell NK1/NK3; read-out: pKi NK1 (converted).
For assay [1], the target named is T1, Recombinant human NK3 (hNK3) receptor (Homo sapiens, UniProt P29371).
T1 construct: expressed in transfected cells
T1 sequence (P29371 1-465): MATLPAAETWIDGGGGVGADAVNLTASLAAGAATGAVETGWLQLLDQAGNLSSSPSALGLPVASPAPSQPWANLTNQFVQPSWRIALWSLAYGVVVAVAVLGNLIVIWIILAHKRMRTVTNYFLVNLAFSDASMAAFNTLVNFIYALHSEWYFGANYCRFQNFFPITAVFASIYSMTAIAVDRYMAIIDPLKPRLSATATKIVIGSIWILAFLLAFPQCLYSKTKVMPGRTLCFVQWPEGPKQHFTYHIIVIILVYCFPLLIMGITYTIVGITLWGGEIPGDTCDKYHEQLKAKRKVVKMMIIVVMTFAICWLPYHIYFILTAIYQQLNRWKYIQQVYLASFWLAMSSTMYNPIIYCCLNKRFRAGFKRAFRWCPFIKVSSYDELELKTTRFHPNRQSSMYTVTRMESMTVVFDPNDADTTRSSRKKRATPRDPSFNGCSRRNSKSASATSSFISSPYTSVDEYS
Kind of assay: NK3 receptor binding, [3H]SR142801 displacement, membrane preparations. The note with it: second value of the cell NK1/NK3; read-out: pKi NK3 (converted). A digest of the protocol: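 Buffer: Tris-HCl 50 mM pH 7.4, BSA 0.1%, MnCl2 4 mM, phosphoramidon 1 μM. ~2.5 μg membrane/well, 90 min RT. NSB with SB222200 (10 μM). Vacuum filtration over 0.3% PEI-treated GF/C, cold Tris/BSA washes, scintillation count; duplicates, ≥2 experiments.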

Chain of human NK1 receptor (P25103 whole entry): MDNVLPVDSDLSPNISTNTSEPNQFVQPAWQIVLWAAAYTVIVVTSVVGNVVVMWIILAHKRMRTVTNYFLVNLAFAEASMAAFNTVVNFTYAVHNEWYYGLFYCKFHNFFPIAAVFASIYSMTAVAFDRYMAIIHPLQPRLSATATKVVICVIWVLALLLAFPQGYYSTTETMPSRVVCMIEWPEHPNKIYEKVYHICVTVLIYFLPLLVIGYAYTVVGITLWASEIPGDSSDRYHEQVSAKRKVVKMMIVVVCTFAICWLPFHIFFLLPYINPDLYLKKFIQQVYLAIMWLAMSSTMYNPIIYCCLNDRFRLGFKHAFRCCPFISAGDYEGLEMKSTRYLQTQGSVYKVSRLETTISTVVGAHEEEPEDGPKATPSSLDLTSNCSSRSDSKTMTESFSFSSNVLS

For the compound `CN(C(=O)C(C)(C)c1cc(C(F)(F)F)cc(C(F)(F)F)c1)c1cnc(N2CCC[C@H]2CO)cc1-c1ccc(Cl)c(Cl)c1` [Example 286, (S)-2-(3,5-Bis-trifluoromethyl-phenyl)-N-[4-(3,4-dichloro-phenyl)-6-(2-hydroxymethyl-pyrrolidin-1-yl)-pyridin-3-yl]-N-methyl-isobutyramide], the Ki on human NK1 receptor was 1.35 nM; in assay [1] it was 3.72 nM.

Turning to `CN(C(=O)C(C)(C)c1cc(C(F)(F)F)cc(C(F)(F)F)c1)c1cnc(N2CCC[C@H]2CO)cc1-c1ccc(Cl)cc1` [Example 287, (S)-2-(3,5-Bis-trifluoromethyl-phenyl)-N-[4-(4-chloro-phenyl)-6-(2-hydroxymethyl-pyrrolidin-1-yl)-pyridin-3-yl]-N-methyl-isobutyramide], the Ki on human NK1 receptor was 6.31 nM; in assay [1], 7.41 nM.

For `CN(C(=O)C(C)(C)c1cc(C(F)(F)F)cc(C(F)(F)F)c1)c1cnc(N2CCC[C@H]2CO)cc1-c1ccc(F)cc1` [Example 288, (S)-2-(3,5-Bis-trifluoromethyl-phenyl)-N-[4-(4-fluoro-phenyl)-6-(2-hydroxymethyl-pyrrolidin-1-yl)-pyridin-3-yl]-N-methyl-isobutyramide], the Ki at human NK1 receptor was 2.63 nM; in assay [1] it was 2.51 nM.

Regarding `CN(C(=O)C(C)(C)c1cc(C(F)(F)F)cc(C(F)(F)F)c1)c1cnc(N2CCC[C@H]2CO)cc1-c1ccccc1` [Example 289, (S)-2-(3,5-Bis-trifluoromethyl-phenyl)-N-[6-(2-hydroxymethyl-pyrrolidin-1-yl)-4-phenyl-pyridin-3-yl]-N-methyl-isobutyramide], the Ki on human NK1 receptor is 3.02 nM; in assay [1] it was 5.01 nM.

As for `Cc1ncccc1-c1cc(N2CCC[C@H]2CO)ncc1N(C)C(=O)C(C)(C)c1cc(C(F)(F)F)cc(C(F)(F)F)c1` [Example 290, (S)-2-(3,5-Bis-trifluoromethyl-phenyl)-N-[6′-(2-hydroxymethyl-pyrrolidin-1-yl)-2-methyl-[3,4′]bipyridinyl-3′-yl]-N-methyl-isobutyramide], the values for the Ki (on human NK1 receptor; in assay [1]) were 1.45 nM and 1.78 nM, respectively.

Consider `Cc1ncccc1-c1cc(N(CCO)CCO)ncc1N(C)C(=O)C(C)(C)c1cc(C(F)(F)F)cc(C(F)(F)F)c1` [Example 291, N-{6′-[Bis-(2-hydroxy-ethyl)-amino]-2-methyl-[3,4′]bipyridinyl-3′-yl}-2-(3,5-bis-trifluoromethyl-phenyl)-N-methyl-isobutyramide], for which the Ki on human NK1 receptor is 3.31 nM; in assay [1], 7.76 nM.

For `Cc1ccncc1-c1cc(N2CCC[C@H]2CO)ncc1N(C)C(=O)C(C)(C)c1cc(C(F)(F)F)cc(C(F)(F)F)c1` [Example 292, (S)-2-(3,5-Bis-trifluoromethyl-phenyl)-N-[6′-(2-hydroxymethyl-pyrrolidin-1-yl)-4-methyl-[3,4′]bipyridinyl-3′-yl]-N-methyl-isobutyramide], the Ki is 3.63 nM on human NK1 receptor and 0.776 nM in assay [1].

With `Cc1ccncc1-c1cc(N(CCO)CCO)ncc1N(C)C(=O)C(C)(C)c1cc(C(F)(F)F)cc(C(F)(F)F)c1` [Example 293, N-{6′-[Bis-(2-hydroxy-ethyl)-amino]-4-methyl-[3,4′]bipyridinyl-3′-yl}-2-(3,5-bis-trifluoromethyl-phenyl)-N-methyl-isobutyramide], the figures for the Ki (on human NK1 receptor; in assay [1]) were 3.8 nM and 1.62 nM, respectively.

As for `Cc1ccncc1-c1cc(N(C)CCO)ncc1N(C)C(=O)C(C)(C)c1cc(C(F)(F)F)cc(C(F)(F)F)c1` [Example 294, 2-(3,5-Bis-trifluoromethyl-phenyl)-N-{6′-[(2-hydroxy-ethyl)-methyl-amino]-4-methyl-[3,4′]bipyridinyl-3′-yl}-N-methyl-isobutyramide], the Ki at human NK1 receptor is 5.13 nM; in assay [1], 4.27 nM.

Take `Cc1ccccc1-c1cc(N2CC(=O)C[C@H]2CO)ncc1N(C)C(=O)C(C)(C)c1cc(C(F)(F)F)cc(C(F)(F)F)c1` [Example 295, (S)-2-(3,5-Bis-trifluoromethyl-phenyl)-N-[6-(2-hydroxymethyl-4-oxo-pyrrolidin-1-yl)-4-o-tolyl-pyridin-3-yl]-N-methyl-isobutyramide]: the Ki is 1.55 nM on human NK1 receptor and 1.66 nM in assay [1].

The values are drawn from patent US8404708B2, “Dual NK1/NK3 receptor antagonists” (Hoffmann-La Roche Inc., priority 2004, dated 2013).
